Test results as given in US20220280644A1, “"TRPswitch" - A STEP FUNCTION CHEMO-OPTOGENETIC LIGAND” (UNIVERSITY OF UTAH RESEARCH FOUNDATION, priority 2019, published 2022).

Experiments:
[1] = system: zebrafish Trpa1b (zTrpa1b); experiment: Rescue experiment, Trpa1b−/− embryos re-expressing zTrpa1b in Rohon-beard neurons; assay type: in vivo; conditions: 20 μM, motion within 5 s after 1 s WL3
Experimental: For Trpa1b ohnolog and paralog rescue experiments, Trpa1b^−/− embryos were injected with ngn1:zTrpa1b-2A-mCherry (partial plasmid sequence in SEQ ID NO:5), ngn1:zTrpa1a-2A-mCherry, ngn1:hTRPA1-2A-EGFP or ngn1:mTRPA1-2A-mCherry at the 1-cell stage for mosaic Rohon-beard neuron expression. Embryos were screened at 2 dpf for fluorescent expression in Rohon-beard neurons, incubated with 20 μM TRPswitch-B for 1 hr and decapitated posterior to the eyes right before experiments. NA 0.25 5× objective and 1 s WL3 light illumination was used.
To test the potential cross activity of TRPswitch-B on the zebrafish ohnolog Trpa1a and on mammalian orthologs, zebrafish Trpa1a, mouse TRPA1 or human TRPA1 were transiently re-expressed in the Rohon-beard neurons of mutant Trpa1b^−/− zebrafish and performed light-induced motion response experiments in the presence of TRPswitch-B. Rescue experiments were performed in Trpa1b^−/− zebrafish with transient mosaic re-expression of zebrafish Trpa1b (zTrpa1b), zebrafish Trpa1a (zTrpa1a), mouse TRPA1 (mTRPA1) or human TRPA1 (hTRAP1) in Rohon-beard neurons. Embryos were pre-treated with 20 μM TRPswitch-B and decapitated right before light stimulation to eliminate the light response mediated by the retina (Table 5). […]

[2] = biological target: T1, endogenous human TRPA1 (Homo sapiens, UniProt O75762); experiment: Whole cell current in untransfected CCD-18Co cells; assay type: cell-based; conditions: without expression of zTrpa1b, violet and green light
T1 construct: human colonic fibroblast cells, CCD-18Co, which express human TRPA1 endogenously; endogenous in cells; host or cells: CCD-18Co (ATCC), untransfected
T1 sequence (O75762 whole entry): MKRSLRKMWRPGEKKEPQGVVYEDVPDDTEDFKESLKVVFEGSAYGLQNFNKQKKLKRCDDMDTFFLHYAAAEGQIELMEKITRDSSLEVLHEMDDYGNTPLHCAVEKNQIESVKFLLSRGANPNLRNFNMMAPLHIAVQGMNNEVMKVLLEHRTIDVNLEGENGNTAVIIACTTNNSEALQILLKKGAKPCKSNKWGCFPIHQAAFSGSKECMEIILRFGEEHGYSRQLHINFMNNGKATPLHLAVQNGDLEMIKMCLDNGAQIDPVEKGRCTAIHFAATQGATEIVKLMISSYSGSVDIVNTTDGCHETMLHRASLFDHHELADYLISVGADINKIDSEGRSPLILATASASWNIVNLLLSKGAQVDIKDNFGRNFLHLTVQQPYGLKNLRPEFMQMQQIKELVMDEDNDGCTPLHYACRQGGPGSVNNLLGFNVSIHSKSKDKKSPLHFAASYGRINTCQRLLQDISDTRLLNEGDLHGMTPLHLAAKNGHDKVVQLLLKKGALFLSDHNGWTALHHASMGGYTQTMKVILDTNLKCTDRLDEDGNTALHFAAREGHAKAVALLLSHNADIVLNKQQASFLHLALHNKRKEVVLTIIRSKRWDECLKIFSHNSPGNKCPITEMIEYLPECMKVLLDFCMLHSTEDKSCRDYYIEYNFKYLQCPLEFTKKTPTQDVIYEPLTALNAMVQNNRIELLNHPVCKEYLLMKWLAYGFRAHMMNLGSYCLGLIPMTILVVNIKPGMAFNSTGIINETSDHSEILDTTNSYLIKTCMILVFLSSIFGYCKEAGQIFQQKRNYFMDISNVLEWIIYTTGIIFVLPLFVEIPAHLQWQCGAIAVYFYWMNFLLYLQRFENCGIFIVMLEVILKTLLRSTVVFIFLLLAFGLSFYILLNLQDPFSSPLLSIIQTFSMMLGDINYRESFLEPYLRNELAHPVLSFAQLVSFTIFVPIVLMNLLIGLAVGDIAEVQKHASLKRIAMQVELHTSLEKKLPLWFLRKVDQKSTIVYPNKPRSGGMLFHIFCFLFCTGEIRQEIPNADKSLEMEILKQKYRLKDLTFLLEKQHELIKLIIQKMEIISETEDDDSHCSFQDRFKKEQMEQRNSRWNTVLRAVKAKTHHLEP
Experimental: (§1) Immortalized HEK293T cells or human colonic fibroblast cells (CCD-18Co; ATCC) were used. HEK293T cells were plated on […] cover slips and transiently transfected with 10 μg of Trpa1b plasmid (pCMV-zTrpa1b-FLAG) (SEQ ID NO:3) and 5 μg of mNeonGreen cDNA (Allele Biotechnology), then grown in a 6 cm plate for 24-48 h. CCD-18Co were cultured in Eagle's minimal essential medium with 10% FBS, 1× penicillin and streptomycin. CCD-18Co cells were plated on 12 mm cover slips and transiently transfected with 5 μg of zTrpa1b plasmid (pCMV-zTrpa1b-FLAG) together with 5 μg of mNeonGreen cDNA (Allele Biotechnology), then grown in a […] plate for 48-72 h. After this time, the cover slips were transferred to a recording chamber containing an extracellular solution composed of 145 mM sodium gluconate, 4 mM KCl, 3 mM MgCl2, 10 mM D-glucose, 10 mM HEPES; pH 7.4 adjusted with NaOH. The internal solution contained 122 mM cesium methane sulfonate, 1.8 mM MgCl2, 9 mM EGTA, 14 mM creatine phosphate (sodium salt), 4 mM Mg-ATP, 0.3 mM Na-GTP, 10 mM HEPES, pH 7.2 adjusted with CsOH. […] Whole cell currents were measured on an Axopatch 200B amplifier (Molecular De-vices) under the control of pClamp software. […] Basal Trpa1b whole cell currents were measured with a ramp protocol (˜100 to +100 mV, at a holding potential of 0 mV). […] The p values were calculated using a two-tailed, paired Student's t-test.

[3] = system: Trpa1b; experiment: Heartbeat interruption in larvae expressing Trpa1b in cardiomyocytes; assay type: in vivo, zebrafish; conditions: 20 μM
Experimental: Heartbeat interruption experiments were performed in vivo on 2 dpf Tg(cm/c2:Trpa1b-2A-EGFP) larvae in a Trpa1b^−/− background. Larvae were pretreated with 20 μM of TRPswitch-A or TRPswitch-B in E3 at a final concentration of 1% DMSO for 1 h in the dark at 28.5° C. before experimental manipulation. Immediately prior to the onset of experiments, E3 solution was replaced with 0.2 mg/mL tricaine (Sigma, A5040) in E3 for anesthetizing the larvae. Violet light (352-402 nm) and green light (500-600 nm) were used for E to Z and Z to E isomerization, respectively. Violet and green light excitation were achieved using a band pass filter FF01-377/50 and an et500lp long pass barrier filter, respectively, together with a t600plxxr dichroic mirror and a 300-Watt xenon bulb light source (Sutter Instrument). Experiments were performed using a NA 0.6 40× air objective at room temperature. The zebrafish heart in the whole field of view was illuminated with 1 s violet light followed by various lengths of green light as indicated. Ventricle width measurement was performed using the ImageJ ‘measure’ function on the widest outer ventricle width every 100 ms.

[4] = system: zebrafish Trpa1b; experiment: Whole cell current in CCD-18Co cells transfected with zebrafish Trpa1b; assay type: cell-based; conditions: CCD-18Co transfected with zTrpa1b
Experimental: as §1

[5] = system: zebrafish Trpa1b; experiment: Whole-cell patch-clamp of HEK293T cells expressing zebrafish Trpa1b; assay type: cell-based
Experimental: Immortalized HEK293T cells or human colonic fibroblast cells (CCD-18Co; ATCC) were used. HEK293T cells were plated on […] cover slips and transiently transfected with 10 μg of Trpa1b plasmid (pCMV-zTrpa1b-FLAG) (SEQ ID NO:3) and 5 μg of mNeonGreen cDNA (Allele Biotechnology), then grown in a 6 cm plate for 24-48 h. CCD-18Co were cultured in Eagle's minimal essential medium with 10% FBS, 1× penicillin and streptomycin. CCD-18Co cells were plated on 12 mm cover slips and transiently transfected with 5 μg of zTrpa1b plasmid (pCMV-zTrpa1b-FLAG) together with 5 μg of mNeonGreen cDNA (Allele Biotechnology), then grown in a […] plate for 48-72 h. After this time, the cover slips were transferred to a recording chamber containing an extracellular solution composed of 145 mM sodium gluconate, 4 mM KCl, 3 mM MgCl2, 10 mM D-glucose, 10 mM HEPES; pH 7.4 adjusted with NaOH. The internal solution contained 122 mM cesium methane sulfonate, 1.8 mM MgCl2, 9 mM EGTA, 14 mM creatine phosphate (sodium salt), 4 mM Mg-ATP, 0.3 mM Na-GTP, 10 mM HEPES, pH 7.2 adjusted with CsOH. Borosilicate glass pipettes with a resistance of 3-5 MO were used. Whole cell currents were measured on an Axopatch 200B amplifier (Molecular De-vices) under the control of pClamp software. Signals were digitized through a Digidata1550B interface (Molecular Devices). Currents were filtered at 5 kHz (lowpass, Bessel) and sampled at 10 kHz prior to analysis with Clampfit software (Molecular Devices). All the plots and statistical tests were performed on Excel (Microsoft corp.). Basal Trpa1b whole cell currents were measured with a ramp protocol (˜100 to +100 mV, at a holding potential of 0 mV). Photoactive compounds were perfused into the recording chamber and a fluorescent light generated by mercury vapor short arc (U-HGLGPS, OLYMPUS) filtered through an ET-ECFP 434/17 nm filter and through a ET-mCherry 560 nm filter (Chroma Technology) was switched “on” and “off” for 10 s. All experiments were performed at room temperature. The p values were calculated using a two-tailed, paired Student's t-test.

light induced photocurrent / cross reaction with endogenous human TRPA1 [2]: does not cross react
Structure (SMILES): Cc1nn(C)c(C)c1/N=N/c1ccc(NC(=O)c2cccs2)cc1NC(=O)c1cccs1 [Compound 9, (E)-N,N′-(4-((1,3,5-trimethyl-1H-pyrazol-4-yl)diazenyl)-1,3-phenylene)bis(thiophene-2-carboxamide)]
% response [1]: 38.5%
ventricle heartbeat after 1 s violet light ([3]; 1 h pre-incubation): could be stopped
ventricular rhythm after 1 s green light ([3]; after violet light): re-stored
photocurrent on green light [4]: green light-induced decrease in photocurrent
photocurrent on violet light [4]: violet light-induced photocurrent
current density fold increment after subsequent pulse of green light ([5]; +100 mV): 1.26±0.33 fold
current density fold increment upon violet light illumination ([5]; +100 mV): 2.12±0.47 fold
current density fold increment after subsequent pulse of green light ([5]; −100 mV): 1.41±0.38 fold
current density fold increment upon violet light illumination ([5]; −100 mV): 2.27±0.38 fold
